{
  "source": "patent US5519055A",
  "about": "“Substituted kynurenines and process for their preparation” (University of Maryland at Baltimore, priority 1993, dated 1996)",
  "molecules": {"B1": {"name": "KAT (partially purified enzyme preparation) (Rattus norvegicus) (protein)", "chain": "MTKRLQARRLDGIDQNLWVEFGKLTKEYDVVNLGQGFPDFSPPDFATQAFQQATSGNFMLNQYTRAFGYPPLTNVLASFFGKLLGQEMDPLTNVLVTVGAYGALFTRFQALVDEGDEVIIMEPAFDCYEPMTMMAGGCPVFVTLKPSPAPKGKLGASNDWQLDPAELASKFTPRTKILVLNTPNNPLGKVFSRMELELVANLCQQHDVVCISDEVYQWLVYDGHQHVSIASLPGMWDRTLTIGSAGKSFSATGWKVGWVMGPDNIMKHLRTVHQNSIFHCPTQAQAAVAQCFEREQQHFGQPSSYFLQLPQAMELNRDHMIRSLQSVGLKLWISQGSYFLIADISDFKSKMPDLPGAEDEPYDRRFAKWMIKNMGLVGIPVSTFFSRPHQKDFDHYIRFCFVKDKATLQAMDERLRKWKELQP"}},
  "key": {"[1]": {"biological_target": "Kynurenine Aminotransferase (KAT)", "test": "Determination of KAT activity inhibition in rat brain homogenate", "format": "biochemical", "conditions": "2 μM [3H]KYN, 2 h at 37° C., pH 8.0, read-out: ID50 (inhibition of KAT enzyme activity)", "source_text": "(§1) Compounds which act as KAT inhibitors may be identified using standard test, for example, measuring their ability to inhibit KAT activity in rat brain homogenate as described, for example, in J. Neurochem., 57, 533-540 (1991) or their inhibitory effect on Kynurenic Acid (KYNA) production by rat brain slices as described, for example, in J. Neurochem., 52, 1629-1636 (1989). KAT catalyzes the biosynthesis of KYNA from Kynurenine (KYN): [drawing 2] and it is singularly responsible for the regulation of extracellular KYNA concentrations in the brain (J. Neurochem., 57, 533-540, 1991).\nA) Determination of KAT activity inhibition in rat brain homogenate\nKAT was measured as described in detail by Okuno et al. (Measurement of rat brain kynurenine aminotransferase at physiological kynurenine concentrations, J. Neurochem., 57, 533-540, 1991).\nBriefly, animals were killed by decapitation and the brain tissue was homogenized (1:5 v/w in 5 mM Trisacetate buffer, pH 8.0, containing 10 mM 2-mercaptoethanol and 50 μM pyridoxal 5'-phosphate) and incubated for 2 h at 37° C. in the presence of 2 μM [^3 H]KYN (30 nCi), 1 mM 2-oxoglutarate and 70 μM pyridoxal 5'-phosphate in 150 mM Tris-acetate buffer, pH 8.0. […]\nNewly synthesized [^3 H]KYNA was separated from [^3 H]KYN on a Dowex 50 W cation-exchange column and quantitated by liquid scintillation spectrometry. […]"}, "[2]": {"system": "KYNA production by rat tissue slices", "test": "Determination of inhibition of KYNA production by rat tissue slices (cerebral cortex)", "format": "cell-based", "conditions": "50 μM L-KYN, 2 h at 37° C., pH 7.4", "source_text": "as §1\nB) Determination of inhibition of KYNA production by rat tissue slices\nRoutinely, slices (base 1×1 mm; weight ≈1.5 mg/slice) from the cerebral cortex were separated on ice and transferred to culture wells (10 slices/well) containing 1 ml of oxygenated Krebs-Ringer buffer (NaCl, 118.5 mM; KCl, 4.75 mM; CaCl 2, 1.77 mM; MgSO4, 1.18 mM; NaH2 PO4, 12.9 mM; NaH2 PO4, 3 mM; glucose, 5mM; pH 7.4). Subsequently, the tissue was preincubated for 10 min at 37° C. and incubated further for 2 h at 37° C., in the presence of 50 μM L-KYN in an oxygenated chamber, on a shaking water bath. Compounds of the present invention were included in the incubation mixture as needed. Following incubation, the culture wells were immediately placed on ice, and the slices were rapidly separated from the incubation medium.\nFor KYNA determination, 1 ml samples of the incubation medium were immersed in a boiling water bath for 10 min, and the precipitated proteins were removed by centrifugation (8,730× g, 10 min). The supernatants were diluted (1:1, v/v) with 0.2M HCl and applied to Dowex 50 W (hydrogen form, Sigma) cation-exchange columns (0.5×2 cm). Subsequently, the columns were washed with 1 ml of 0.1M HCl and 1 ml of water, and the fraction containing KYNA was eluted with 2 ml of water. The eluates were applied to a 3-μm C18 HPLC column (100×3.2 internal diameter, Bioanalytical Systems, West Lafayette, Ind., U.S.A.), and KYNA was isocratically eluted with a mobile phase containing 50 mM ammonium acetate and 5% methanol at a flow rate of 0.5 ml/min. Under these conditions, the retention time of KYNA was ≈7 min.\nData were recorded and calculated with a Hewlett-Packard 3390A integrator connected to a model 160 UV absorbance detector (Beckman Instruments, Berkeley, Calif., U.S.A.) set at 340 nm.\nIn this assay, (D,L)-2-amino-4-(2-amino-5-chlorophenyl)-4-oxo butyric acid, also known as D,L-5-chloro-kynurenine, was tested with the following results: […]"}, "[3]": {"biological_target": "T1, KAT (partially purified enzyme preparation) (Rattus norvegicus, UniProt Q08415)", "T1 construct": "a preparation of partially purified enzyme in a total volume of 0.1 ml; from tissue", "T1 sequence (Q08415 1-423)": "B1 chain", "test": "Kinetic analysis of KAT inhibitors using a partially purified enzyme preparation", "format": "biochemical", "conditions": "KYN varied 2 μM to 2 mM, 1 mM pyruvate, pH 8.0, 2 h at 37° C., double reciprocal plots", "description": "C) Kinetic analysis of KAT inhibitors using a partially purified enzyme preparation (Brain Research, 534, 37-44 (9)\nThe reaction mixture contained [^3 H]KYN (30 nCi), diluted with unlabelled KYN to yield a final concentration of 2 μM, 1 mM pyruvate, 70 μM pyridoxal 5'-phosphate, 150 mM Tris-acetate buffer, pH 8.0, and a preparation of partially purified enzyme in a total volume of 0.1 ml. Test compounds were included in the incubation mixture as needed. The reaction was started by the addition of pyruvate. After incubation for 2 h at 37° C., the reaction was terminated by the addition of 14 μl of 50% (w/w) trichloroacetic acid. Subsequently, 1 ml of 0.1M HCl was added and denaturated protein was removed by a 4-min centrifugation in a Beckman 52 B microfuge. 1 ml of the resulting supernatant was applied to a Dowex 50 W column (0.5×1.0 cm; H^+ form) and washed with 1 ml of 0.1M HCl, followed by 1 ml of distilled water. [^3 H]KYNA was eluted with 2 ml of distilled water and quantitated by liquid scintillation spectrometry. Enzyme measurements were performed in triplicate samples. Blanks were obtained by using an enzyme preparation which had been heat-deactivated for 10 min in a boiling water bath. […] Double reciprocal plots were constructed and lines of best fit were determined by linear regression analysis."}, "[4]": {"system": "excitatory amino acid (EAA) receptor", "conditions": "J. Neurochem., 52, 1319-1328, 1989; cited from earlier work"}, "[5]": {"system": "glycine modulatory site of the N-methyl-D-aspartate (NMDA) receptor complex", "conditions": "J. Neurochem., 52, 1319-1328, 1989; cited from earlier work"}, "[6]": {"substrate": "Nc1ccccc1C(=O)C[C@H](N)C(=O)O", "test": "purified protein, by the assay type", "conditions": "other: substrate KYN varied 2 μM to 2 mM, 1 mM pyruvate, pH 8.0, 2 h at 37° C., double reciprocal plots"}},
  "data": [
    {"molecule": "Nc1ccc(Cl)cc1C(=O)CC(N)C(=O)O", "note": "(racemic) [Example 3, 2-amino-4-(2-amino-5-chlorophenyl)-4-oxo-butyric acid]", "values": [
      {"measurement": "IC50", "setting": "[1]", "value": 78, "unit": "µM"},
      {"measurement": "inhibition at 25 µM", "setting": "[2]; 25 μM compound", "value": 33, "unit": "%"},
      {"measurement": "inhibition at 50 µM", "setting": "[2]; 50 μM compound", "value": 39, "unit": "%"},
      {"measurement": "inhibition at 100 µM", "setting": "[2]; 100 μM compound", "value": 56, "unit": "%"},
      {"measurement": "inhibition at 250 µM", "setting": "[2]; 250 μM compound", "value": 66, "unit": "%"},
      {"measurement": "Ki", "setting": "[3]", "value": 88, "unit": "µM"}
    ]},
    {"molecule": "O=C(O)c1cc(=O)c2ccccc2[nH]1", "note": "[KYNA, Kynurenic Acid]", "values": [
      {"measurement": "excitatory amino acid (EAA) receptor antagonism", "setting": "[4]", "value": "effective excitatory amino acid (EAA) receptor antagonist"},
      {"measurement": "affinity to the glycine modulatory site of the NMDA receptor complex", "setting": "[5]", "value": "particularly high affinity"}
    ]},
    {"molecule": "B1", "values": [
      {"measurement": "Km", "setting": "[6]", "value": 369, "unit": "µM"}
    ]}
  ]
}
